Measurements as given in paper PMC12175168, “Refining the Amino Reactivity-Based Identification of Respiratory Sensitizers” (Chemical Research in Toxicology, 2025).

Tests used:
[1] = Kinetic Gly-pNA chemoassay (second-order rate constant k Gly); conditions: reaction with Gly-pNA, nominal test compound concentration; for k Gly ± s(k Gly), second-order rate constant: phosphate buffer 80 mM, 25 °C, ≥ values are minimum reactivity; for log k Gly: phosphate buffer;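 on all read-outs here: Gly-pNA depletion followed over time by chromatographic peak area, with test compound in at least tenfold excess (pseudo-first-order), added from acetonitrile stock, at least three runs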
Procedure: The reactivity of the 27 test compounds toward Gly-pNA was quantified in terms of the second-order reaction rate constant k Gly using our Gly-pNA chemoassay. , In brief, stock solutions of the test compound were freshly obtained every day by gravimetrically adding the required amount into a 10 mL volumetric flask, which was subsequently filled to volume with acetonitrile (ACN). The required amounts of test compounds depended on their reactivity toward Gly-pNA. […] As usual for kinetic studies, fast reacting chemicals are applied at lower concentrations than little reactive candidates. All stock solutions were stored at 25 °C in a climate chamber before first use (ca. 30 min) and for repeating an experiment (max. 6 h). Gly-pNA stock solution (1.69 mM) was obtained by dissolving 3.3 mg Gly-pNA in 10 mL phosphate buffer solution (80 mM) and could be used for several weeks if stored at 4 °C. For all chemoassay experiments, 1.8 mL glass vials were used as reaction batches, which were initially filled with 1070 μL phosphate buffer (80 mM) and 30 μL Gly-pNA stock solution. To start the reaction, 400 μL of the test compound stock solutions was added. […] The time between the start of the reaction and the first analysis was measured with an electronic time clock. All reactions were performed under pseudo-1st order conditions with the electrophile being at least ten times in excess over Gly-pNA.
For these compounds, the minimum reactivity was estimated in terms of k Gly by plotting ln (A Gly ^ t /A Gly ^0) vs reaction time t (with A Gly ^ t and A Gly ^0 being the peak areas under the chromatographic signal for Gly-pNA at time t and at the beginning of the reaction (t = 0)). Linear regression through 0 (at t = 0) and the first measurement point yields slope s (see Figure S1) which is the pseudo-1st order rate constant k Gly ^pseudo that can be converted with the initial test compound concentration in the reactions mixture (c) into k Gly according to eq . 1 kGly=kGlypseudo/c
2 Ln(AGlyt/AGly0)≈−kGly·c·t+0.5·kGly·kloss·c·t^2 Here k loss is the first order rate constant covering all processes contributing to the loss of the test compounds, except the reaction with Gly-pNA. The regression parameter of the linear part of eq (= k Gly·c) is the pseudo-1st order rate constant k Gly ^pseudo and can be converted into k Gly according to eq (see above).
Linear regression of these plots provides slope s, which is again the pseudo-1st order rate constant, k Gly ^pseudo, and can be used to calculate k Gly according to eq . All experiments to determine k Gly have been conducted at least three times.

[2] = DPRA-like chemoassay with Gly-pNA (24 h percent depletion); conditions: PPB pH 7.4, 24 h, 25 °C, 50-fold excess of test compound
Procedure: (§1) In addition to the kinetic Gly-pNA chemoassay, the reactivity of the 27 compounds toward Gly-pNA and Lys-pNA was determined in terms of percentage depletions after reacting for 24 h at 25 °C employing the following DPRA-like setup: stock solutions for the test compounds were prepared by gravimetrically adding at least 3 mg of the respective compound into a glass vial (total volume 1.8 mL) and subsequent addition of 1 mL ACN. […] The stock solutions for Gly-pNA and Lys-pNA with a final concentration of 1.7 mM were prepared by dissolving the required amount in one of the three aqueous buffer solutions used for this DPRA-like chemoassay: phosphate buffer (80 mM, pH 7.4), phosphate buffer (80 mM, pH 10.2), and ammonium acetate buffer (100 mM, pH 10.2). Glass vials (1.8 mL) were used as reaction vessels.
(§2) In the final reaction mixtures, the concentration of Gly-pNA or Lys-pNA was 0.03 mM, and the test compound was 50 times in excess (1.5 mM). After incubation for 24 h at 25 °C, the free amount of either Gly-pNA or Lys-pNA was determined using the HPLC UV–vis method described for the kinetic Gly-pNA chemoassay. , The percentage depletion of Gly-pNA (D Gly) or Lys-pNA (D Lys) was determined directly from peak areas according to eq 3 Dx[%]=(Axcontrol−Ax/Axcontrol×100)withx=GlyorLys
(§3) In eq , A x and A x ^control are the peak areas of the chromatographic signal of either Gly-pNA (x = Gly) or Lys-pNA (x = Lys) at 315 nm after 24 h incubation with and without test compound, respectively.
(§4) Summary of experimental conditions of the DPRA-like setups used to determine
(§5) DGly, D Lys, and D DPRA data in Table 2 (main text).
(§6) Table S2. Overview of experimental conditions for the DPRA-like setups used to
(§7) determine 24 h percentage depletion rates for the reaction of the test compounds with
(§8) Gly-pNA, Lys-pNA, and the DPRA lysine peptide (literature data).

[3] = DPRA-like chemoassay with Lys-pNA (24 h percent depletion); conditions: 25 °C, 50-fold excess of test compound
Procedure: as §1, §2, §3, §4, §5, §6, §7, §8

[4] = ref Krutz et al., Sadekar et al., Ponder et al., Karol et al., Hopkins et al.; cited from earlier work
[5] = Stability assessment of test compounds in aqueous buffers (half-lives)
Procedure: To this end, the test compound was dissolved in 1 mL ACN in a glass vial. […] As reaction batches, 1.8 mL glass vials equipped with 400 μL glass inserts were used and filled with 220 μL of the respective aqueous buffer and 80 μL of the test compound stock solution. The depletion of the test compounds was recorded with the HPLC UV–vis instrument used for the kinetic Gly-pNA chemoassay. , Chromatographic separation of the reaction mixture was achieved using the gradient described for the Gly-pNA chemoassay previously , and an isocratic HPLC method (water/ACN 70:30, both with 0.1 vol % formic acid). The wavelengths used for the detection of the compound and the information on the used chromatographic method are given in the Supporting Information in Table S3.

DPRA lysine peptide = test system: DPRA lysine peptide; set-up: method as in literature; conditions: AAB pH 10.2, 24 h; ref literature; cited from earlier work
[6] = AAB (ammonium acetate buffer) pH 10.2, 24 h
[7] = buffer, pH 7.4, half-lives t 1/2 ± s(t 1/2), PPB (phosphate buffer 80 mM) pH 7.4
[8] = buffer, pH 10.2, half-lives t 1/2 ± s(t 1/2), AAP (ammonium acetate buffer 100 mM) pH 10.2
[9] = buffer, pH 10.2, half-lives t 1/2 ± s(t 1/2), PPB (phosphate buffer 80 mM) pH 10.2
[10] = aqueous ammonium acetate buffer with acetonitrile, pH 10.2
[11] = aqueous phosphate buffer with acetonitrile, pH 7.4
[12] = aqueous phosphate buffer with acetonitrile, pH 10.2

SMILES	k Gly ± s(k Gly), second-order rate constant [1]	D Gly ± s(D Gly), 24 h percent depletion of Gly-pNA [2]	D Lys ± s(D Lys), 24 h percent depletion of Lys-pNA [3, 6]	D Lys ± s(D Lys), 24 h percent depletion of Lys-pNA ([3]; PPB pH 10.2, 24 h)	Classification as potential respiratory sensitizer or non-sensitizer [4]	half-life [5, 7]	half-life [5, 8]	half-life [5, 9]	D DPRA ± s(D DPRA), depletion of the DPRA lysine peptide (DPRA lysine peptide)	log k Gly [1]	half-lives t 1/2 ± s(t 1/2) ([5]; PPB (phosphate buffer 80 mM) pH 7.4)	half-life [5, 10]	half-life [5, 11]	half-life [5, 12]
O=C=Nc1ccc(Cc2ccc(N=C=O)cc2)cc1 [A4, 4,4′-methylene diphenyl diisocyanate]	≥20015 ± 4486 L mol^–1 min^–1	100%	22.9 ± 4.4%	100%	potential respiratory sensitizer	5.9 ± 1 min	< 1 min	4.6 ± 0.3 min	23.0 ± 6.2%	–	–	–	–	–
O=C=Nc1ccccc1 [A5, phenyl isocyanate]	≥2368 ± 309 L mol^–1 min^–1	100%	10.2 ± 0.7%	100%	potential respiratory sensitizer	< 1 min	< 1 min	< 1 min	48.4 ± 1.1%	≥3.37	–	–	–	–
O=C1OC2(c3ccc(O)cc3Oc3cc(O)ccc32)c2ccc(N=C=S)cc21 [B3, fluorescein isothiocyanate]	15.1 ± 2.6 L mol^–1 min^–1	100%	56.5 ± 0.3%	100%	potential respiratory sensitizer	–	8.21 ± 0.18 min	3500 ± 236 min	61.1%	–	no depletion	–	–	–
O=C1OC(=O)c2ccccc21 [C1, phthalic anhydride]	≥22480 ± 1197 L mol^–1 min^–1	100%	22.6 ± 7.4%	100%	potential respiratory sensitizer	–	–	–	69.2 ± 22.0%	–	–	< 1 min	89.5 ± 4.1 min	< 1 min
O=C(O)c1ccc2c(c1)C(=O)OC2=O [C2, trimellitic anhydride]	≥22271 ± 1975 L mol^–1 min^–1	100%	15.2 ± 0.6%	100%	potential respiratory sensitizer	–	–	–	59.9 ± 22.0%	4.35	–	< 1 min	110 ± 10 min	1 min
O=C1OC(=O)c2c(Cl)c(Cl)c(Cl)c(Cl)c21 [C3, tetrachlorophthalic anhydride]	≥9816 ± 858 L mol^–1 min^–1	100%	11.5 ± 1.8%	99.2 ± 0.7%	potential respiratory sensitizer	24.3 ± 0.6 min	< 1 min	< 1 min	83.5 ± 0.7%	3.99	–	–	–	–
